For assay [1], the system named is IgM. Description: Serum IgM in anti-IgD stimulated mice (two site sandwich ELISA, Assay E). It counts as in vivo, mouse (Balb/c female). To be noted: 20 μg days 3 and 4; for inhibition of IgM: Example 25; for IgM ± SD: Table 14, day 8 (control 4147). How it is done:
Sera from mice treated with compounds in accordance with the method of the invention are analyzed for levels of IgG1, IgG2a, IgG3, and IgM.
Measurement of mouse IgM by a two site sandwich ELISA is performed in substantial accordance with the teachings of Assay B except for the following changes. About 250 ng of rabbit anti-mouse IgM (Zymed Laboratories) is used to coat a NuncImmulon 96 well plate. The IgM standard is purchased from Southern Biotech. The standard curve is linear between 8-500 ng/ml. Serum containing IgM is diluted 1/4,000 to 1/60,000. About a 1/10,000 dilution of goat anti mouse IgM conjugated to horse radish peroxidase is used as a combined primary antibody and developing reagent. 100 μl is added to each well and the plate is incubated at about 4° C. overnight. The colorimetric substrate is prepared and used as described in Assay A.
Two groups of 4 Balb/c female mice per group are injected with both 100 μg FF1-4D5 antibody and 100 μg H∂Al antibody. On day 3 and 4 the mice are injected with PBS (Group A) or 20 μg (±) methyl 11α,16-dihydroxy-16-ethyl-9-oxoprosta-5Z,13E-dien-1-oate (Group B) at 7 a.m., 1 p.m. and 7 p.m. in substantial accordance with the teaching of Example 13. On day -1, 7, 8, 9 and 11, 50-100 μl of serum is recovered and analyzed for IgE by Assay A and for IgM by Assay E. The results are shown in Table 6.
Three groups of 5 Balb/c female mice per group are injected with both 100 μg FF1-4D5 antibody and 100 μg H∂A1 antibody on day 0. Group A is a control with no further treatment. On day 3 and 4, the mice are injected with 20 μg (±) methyl 11α,16-dihydroxy-4,4,16-trimethyl-9-oxoprosta-13E-en-1-oate (Group B) or 20 μg (±) methyl 11α,16-dihydroxy-16-methyl-9-oxoprosta-3,5Z,13E-trien-1-oate (Group C) as in Example 13. On day -1 and 8, […] of serum is recovered and analyzed for IgE, IgG1, IgG2a, IgG3 and IgM by Assays A, B, C, D and E, respectively.
For orientation: An ELISA detects its analyte on a solid surface through an enzyme-linked reagent.

Assay [2] deals with IgE. The assay is described as follows: Serum IgE response induced by FF1-4D5 + H∂A1 anti-IgD antibodies (ELISA, Assay A / Assay F). To be noted: 20 μg days 3 and 4. The format is in vivo, mouse (Balb/c female). The method in brief: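 Transient IgE response induced in female Balb/c mice (10–20 weeks) by a day-0 i.v. or s.c. injection of 100 μg each of anti-IgD FF1-4D5 and H.δA1. Serum IgE measured by sandwich ELISA (B1E3 capture, biotinylated R1E4 detection, avidin-biotin-HRP/ABTS), quantified against an IgE standard curve corrected for serum dilution.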

Where [3] appears, read: Table 12, day 8 (control 11398).

Each structure is given as a SMILES string.

`CCCCC(C)(O)C/C=C/[C@H]1[C@H](O)CC(=O)[C@@H]1CCCC(C)(C)CCC(=O)OC` (mixture of isomers) [(±) methyl 11α,16-dihydroxy-4,4,16-trimethyl-9-oxoprost-13E-en-1-oate]: in assay [1], the “inhibition of IgM” value was “not IgG1, IgG2a, IgG3 and IgM”; the “IgM ± SD” value turned out to be 9792 ± 984 µg/mL. Further, the “de novo IgE synthesis” value in assay [2] (Example 25) was “inhibit de novo IgE synthesis”. Besides, the “IgE ± SD” value in assay [2] (Table 14, day 8 (control 6071)) was below 800 ng/mL.
With `CCCCC(C)(O)C/C=C/[C@H]1[C@H](O)CC(=O)[C@@H]1CCC1CC1CCC(=O)OC` (relative stereo) [(±) methyl 2-[2-[3R-3α-hydroxy-2β-(4-hydroxy-4-methyl-1E-octenyl)-5-oxo-1α-cyclopentyl]ethyl]cyclopropanepropanoate], the “de novo IgE synthesis” value in assay [2] (Example 23) is listed as “inhibit de novo IgE synthesis”. Moreover, the “IgE ± SD” value in assay [2] (setting [3]) turned out to be 3034 ± 878 ng/mL.
As to `CCCCC(C)(O)C/C=C/[C@H]1[C@H](O)CC(=O)[C@@H]1CC1CC1CCCC(=O)OC` (relative stereo) [(±) methyl 2-[2-[3R-3α-hydroxy-2β-(4-hydroxy-4-methyl-1E-octenyl)-5-oxo-1α-cyclopentyl]methyl]cyclopropanebutanoate], the “de novo IgE synthesis” value in assay [2] (Example 23) is “inhibit de novo IgE synthesis”. Moreover, the “IgE ± SD” value in assay [2] (setting [3]) is 2750 ± 318 ng/mL.
With `CCCCC(C)(O)C/C=C/[C@H]1[C@H](O)CC(=O)[C@@H]1C/C=C\C=CCC(=O)OC` (relative stereo) [(±) methyl 11α,16-dihydroxy-16-methyl-9-oxoprosta-3,5Z,13-trien-1-oate], in assay [1], the “inhibition of IgM” value is “not IgG1, IgG2a, IgG3 and IgM”; the “IgM ± SD” value stood at 7708 µg/mL. Moreover, the “de novo IgE synthesis” value in assay [2] (Example 25) was “inhibit de novo IgE synthesis”. Also, in assay [2] (Table 14, day 8 (control 6071)), the “IgE ± SD” value is 1176 ± 137 ng/mL.

Values taken from US5157052A, “Method for inhibiting IgE production” (priority 1990, dated 1992).
